Read-outs that look alike come from different tables or passages of the source.
Legend:
BRD2-BD1 = BRD2-BD1 (Homo sapiens (Human), UniProt P25440); experiment: competitive TR-FRET assay, BET-BD with acetylated peptide ligand; format: binding
Description: (§1) Inhibitor potency was determined using a competitive TR-FRET assay as detailed herein, measuring interaction of the respective BET-BD with an acetylated peptide ligand (Table 2).

BRD2-BD2 = BRD2-BD2 (Homo sapiens (Human), UniProt P25440); experiment: as above; format: binding; settings: for 2.1/2.2: ratio of BRD2-BD1 EC50 to BRD2-BD2 EC50 (selectivity)
Description: as §1

BRD3-BD1 = BRD3-BD1 (Homo sapiens (Human), UniProt Q15059); experiment: as above; format: binding
Description: as §1

BRDT = BRDT (Homo sapiens, UniProt Q58F21); experiment: as above; format: binding
Description: as §1

HDMB03 cells = experiment: cell viability, CellTiter-Glo; format: cell-based, human; settings: Homo sapiens, read-out: EC50 (μM) HDMB03
Description: Human G3 medulloblastoma or mouse SHH medulloblastoma cells were grown as neurospheres in supplemented neurobasal medium, as previously described (Kawauchi et al., 2012.)
(§2) After 7 days of treatment, an equal volume of CellTiter-Glo reagent (G7572, Promega) was added and the luminescence signal was measured using an automated Envision plate reader (Perkin-Elmer). Luminescence data were normalized by log10 transformation prior to calculating the percent inhibition using the following equation:
(§3) 100*(negative control mean −compound value)/(negative control mean −positive control mean).
High-throughput assay data were analyzed using Robust Interpretation of Screening Experiments (RISE) application written in Pipeline Pilot (Accelrys, v. 8.5) and the R program (R Development Core Team).
Dose-response curves were calculated by regressing the median percent inhibition obtained over triplicate experiments to log 10-transformed concentrations. Non-linear regression was then performed using the R drc package with the four parameter log-logistic function (LL2.4) (Ritz and Streibig, 2009). Curves were fit under three different constraints: (1) all parameters free, (2) high response fixed to 100, (3) low response fixed to 0; and the best fit from these three nested models was selected using the anova.drc function.

[1] = test system: c-Myc expression in HDMB03 cells; experiment: c-Myc expression inhibition, high content microscopy (HCM); format: cell-based, human; settings: Homo sapiens, read-out: EC50 (μM) Myc-inhibition
BRD2(1) = BRD2(1) (Homo sapiens (Human), UniProt P25440); experiment: BROMOscan KD determination; format: binding; settings: Table 10
Description: (§4) DiscoverX® can screen compounds against all ˜42 bromodomains (a service called BROMOscan) and perform follow-up KD determination. This service is considered the industrial standard for bromodomain inhibitor comparisons. […] Dots are symbolic of inhibition of the compound at this concentration; the larger the size of the dot, the greater the activity of the compound. […] Though these compounds are selective for the BET family, the selectivity within the BET family is poor. The results of a competitive binding experiment between compounds 19 (left), 41 (center), and 56 (right) (at a single concentration, 1 μM) and a control for each of the bromodomains are shown in FIG. 5.

BRD2(2) = BRD2(2) (Homo sapiens (Human), UniProt P25440); experiment: BROMOscan KD determination; format: binding; settings: for [2(1)/2(2)]: BROMOscan KD ratio; for Kd: BROMOscan, Table 10
Description: as §4

BRDT(1) = BRDT(1) (Homo sapiens (Human), UniProt Q58F21); experiment: BROMOscan KD determination; format: binding; settings: Table 10
Description: as §4

BRDT(2) = BRDT(2) (Homo sapiens (Human), UniProt Q58F21); experiment: BROMOscan KD determination; format: binding; settings: for T(1)/T(2): BROMOscan KD ratio; for Kd: BROMOscan, Table 10
Description: as §4

BRD3(1) = BRD3(1) (Homo sapiens (Human), UniProt Q15059); experiment: BROMOscan KD determination; format: binding; settings: Table 10
Description: (§5) DiscoverX® can screen compounds against all ˜42 bromodomains (a service called BROMOscan) and perform follow-up KD determination. This service is considered the industrial standard for bromodomain inhibitor comparisons.

BRD3(2) = BRD3(2) (Homo sapiens (Human), UniProt Q15059); experiment: BROMOscan KD determination; format: binding; settings: for 3(1)/3(2): BROMOscan KD ratio; for Kd: BROMOscan, Table 10
Description: as §5

BRD4(1) = BRD4(1) (Homo sapiens (Human), UniProt O60885); experiment: BROMOscan KD determination; format: binding; settings: Table 10
Description: as §5

BRD4(2) = BRD4(2) (Homo sapiens (Human), UniProt O60885); experiment: BROMOscan KD determination; format: binding; settings: for 4(1)/4(2): BROMOscan KD ratio; for Kd: BROMOscan, Table 10
Description: as §5

MV-4-11 = experiment: anti-proliferative activity; format: cell-based; settings: Homo sapiens, MV4-11; Table 7
Description: as §2, §3

BRD4-BD1 = BRD4-BD1 (Homo sapiens (Human), UniProt O60885); experiment: competitive TR-FRET assay, BET-BD with acetylated peptide ligand; format: binding; settings: BRD4-BD1; Table 11 additional modifications; read-out: 4.1 EC50
Description: as §1

BRD4-BD2 = BRD4-BD2 (Homo sapiens (Human), UniProt O60885); experiment: as above; format: binding; settings: BRD4-BD2; Table 11 additional modifications; read-out: 4.2 EC50
Description: as §1

[2] = Table 4, read-out: EC50 (μM) BRD2(1)
[3] = Table 4, read-out: EC50 (μM) BRD2(2)
[4] = BRD2-BD1, Table 11 additional modifications, read-out: 2.1 EC50
[5] = BRD2-BD2, Table 11 additional modifications, read-out: 2.2 EC50
[6] = BRD3-BD1, Table 11 additional modifications, read-out: 3.1 EC50
[7] = BRDT, Table 11 additional modifications, read-out: BRDT EC50

Chain of BRD3-BD1 (Q15059 34-140): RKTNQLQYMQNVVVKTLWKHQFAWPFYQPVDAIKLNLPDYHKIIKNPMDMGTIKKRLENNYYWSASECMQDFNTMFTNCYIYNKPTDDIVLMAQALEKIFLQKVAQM
Chain of BRD3(1) (Q15059 34-140): as above
Chain of BRD2-BD2 (P25440 344-453): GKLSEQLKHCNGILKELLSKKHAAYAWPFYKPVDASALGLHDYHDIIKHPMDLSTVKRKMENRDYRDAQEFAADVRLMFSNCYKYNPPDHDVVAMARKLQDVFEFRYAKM
Chain of BRD2(2) (P25440 344-453): as above
Chain of BRD3(2) (Q15059 306-415): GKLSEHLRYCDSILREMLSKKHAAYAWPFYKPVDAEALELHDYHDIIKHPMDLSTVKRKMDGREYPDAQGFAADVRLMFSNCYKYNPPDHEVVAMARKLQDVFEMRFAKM
Chain of BRD2-BD1 (P25440 74-180): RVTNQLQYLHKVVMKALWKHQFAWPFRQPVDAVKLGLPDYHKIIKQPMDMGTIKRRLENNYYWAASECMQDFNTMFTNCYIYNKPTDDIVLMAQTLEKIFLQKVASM
Chain of BRD2(1) (P25440 74-180): as above

Row | Structure (SMILES) | EC50 (BRD2-BD1; [2]) | [2(1)/2(2)] (BRD2-BD2; Table 4, ratio of EC50) | EC50 (BRD2-BD2; [3]) | EC50 (BRD3-BD1; Table 4, read-out: BRD3(1)) | EC50 (BRDT; Table 4, read-out: BRDT EC50) | EC50 (HDMB03 cells; HD-MB03, Table 5) | EC50 ([1]; HD-MB03, Table 5) | Kd (BRD2(1)) | [2(1)/2(2)] (BRD2(2)) | Kd (BRD2(2)) | Kd (BRDT(1)) | T(1)/T(2) (BRDT(2)) | Kd (BRDT(2)) | Kd (BRD3(1)) | 3(1)/3(2) (BRD3(2)) | Kd (BRD3(2)) | Kd (BRD4(1)) | 4(1)/4(2) (BRD4(2)) | Kd (BRD4(2)) | EC50 (BRD2-BD1; [4]) | also measured
1 | COc1cc(F)ccc1N[C@@H]1C[C@H](C)N(C(C)=O)c2ccc(-c3cccc(NC(C)=O)c3)cc21 [compound 42] | 13 µM | >100 | 0.14 µM | > 14 µM | > 14000 nM | 0.76 µM | > 10 µM | – | – | – | – | – | – | – | – | – | – | – | – | – | –
2 | CC(=O)Nc1cccc(-c2ccc3c(c2)[C@H](Nc2ccccc2C(F)(F)F)C[C@H](C)N3C(C)=O)c1 [compound 41] | 70 µM | 57 | 0.35 µM | 20 µM | 53000 nM | 1.6 µM | 6.2 µM | 790 nM | 49.4 | 16 nM | 290 nM | 9.4 | 31 nM | 500 nM | 138.9 | 3.6 nM | 410 nM | 64.1 | 6.4 nM | – | –
3 | CCCCNc1cccc(-c2ccc3c(c2)[C@H](Nc2ccc(C(=O)OC)cc2)C[C@H](C)N3C(C)=O)c1 [compound 45] | – | – | – | – | – | – | – | – | – | – | – | – | – | – | – | – | – | – | – | – | EC50 (BRD2-BD1; Table 6, read-out: EC50 (μM) BRD2(1)): 2.6 µM; [2(1)/2(2)] (BRD2-BD2; Table 6, ratio of EC50): 16.25; EC50 (BRD2-BD2; Table 6, read-out: EC50 (μM) BRD2(2)): 0.16 µM; EC50 (BRD3-BD1; Table 6, read-out: EC50 (μM) BRD3(1)): 2.1 µM; EC50 (BRDT; Table 6, head names no target, BRDT by comparison with Table 4, read-out: EC50): 7300 nM; EC50 (HDMB03 cells; HD-MB03, Table 7): 0.56 µM; EC50 (MV-4-11): 0.083 µM; EC50 ([1]; HD-MB03, Table 7): 0.38 µM
4 | CC(=O)N1c2ccc(-c3cccc(-n4cccn4)c3)cc2[C@H](Nc2ccc(Cl)cc2)C[C@@H]1C [compound 136] | – | – | – | – | – | – | – | 350 nM | 21.9 | 16 nM | 220 nM | 3.3 | 66 nM | 220 nM | 29.3 | 7.5 nM | 270 nM | 35.1 | 7.7 nM | 17 µM | EC50 (BRD2-BD2; [5]): 0.19 µM; 2.1/2.2 (BRD2-BD2): 63; EC50 (BRD3-BD1; [6]): 10 µM; EC50 (BRD4-BD1): 17000 nM; EC50 (BRD4-BD2): 250 nM; EC50 (BRDT; [7]): 10000 nM
5 | COC(=O)c1ccc(N[C@@H]2C[C@H](C)N(C(C)=O)c3ccc(-c4ccnn4C)cc32)cc1 [compound 49] | – | – | – | – | – | – | – | 23 nM | 13.5 | 1.7 nM | 17 nM | 6.1 | 2.8 nM | 11 nM | 6.9 | 1.6 nM | 14 nM | 12.7 | 1.1 nM | – | EC50 (BRD2-BD1; Table 8, read-out: EC50 (μM) BRD2(1)): 1.4 µM; EC50 (BRD2-BD2; Table 8, read-out: EC50 (μM) BRD2(2)): 0.14 µM; EC50 (BRD3-BD1; Table 8, read-out: BRD3(1)): 0.9 µM; EC50 (BRDT; Table 8, head names no target, BRDT by comparison with Table 4, read-out: EC50): 4400 nM; EC50 (HDMB03 cells; HD-MB03, Table 9, cancer cell proliferation inhibition): 1.6 µM; EC50 ([1]; HD-MB03, Table 9, c-Myc expression inhibition in HDMB03 cells): 5.1 µM
6 | CCCOc1cccc(-c2ccc3c(c2)[C@H](Nc2ccc(C(=O)OC)cc2)C[C@H](C)N3C(C)=O)c1 [compound 56] | – | – | – | – | – | – | – | 160 nM | 19.5 | 8.2 nM | 95 nM | 4.1 | 23 nM | 99 nM | 23.0 | 4.3 nM | 140 nM | 31.8 | 4.4 nM | 8.2 µM | EC50 (BRD2-BD2; [5]): 0.5 µM; 2.1/2.2 (BRD2-BD2): 16; EC50 (BRD3-BD1; [6]): 8.1 µM; EC50 (BRD4-BD1): > 63000 nM; EC50 (BRDT; [7]): 12000 nM
